According to patent publication US6185453A, “Iontophoretic delivery of integrin inhibitors” (DuPont Pharmaceuticals Company, priority 1997, dated 2001):
Where “and” joins values, the source holds several entries; their conditions need not be identical. Equal values may be shown once. Where a name gives a salt, the structure may show the parent alone. One block for each molecule: values may come before it.

Columns and labels:
[1] = In vitro excised porcine skin iontophoretic delivery (flow-through diffusion cell); type: in vitro ADME; conditions: for Dose Delivered: 18 hours iontophoresis, 2 cm^2 patch
Protocol: The iontophoretic delivery of a representative GPIIb/IIIa inhibitor compound, Compound A, was carried out in a flow-through diffusion cell in vitro excised skin delivery system. The transdermal patch design used in these studies included an absorbent drug reservoir with 2 cm^2 active area of skin contact and a volume of 0.3 mL. The drug reservoir compartment was separated from the electrode compartment by a semi-permeable membrane with a molecular weight cutoff of 100. The electrode compartment included a silver […] and a cation exchange media in a hydrogel matrix. The drug reservoir compartment was filled with dosing solution just before application to the skin. A silver-silver chloride mesh return cathode was located upstream of the polycarbonate flow-through cells. Freshly dermatomed (1 mm) porcine skin was mounted in the cells on a porous support polyethylene. The patches included an absorbent reservoir in contact with silver and silver chloride electrodes. They were dosed with aqueous solutions of the drug and then placed on top of the excised skin. The patches were secured by a spring loaded mechanism which maintained even pressure over the patch. The cells were "perfused" by means of a peristaltic pump which pulls receiver solution through them. Effluents from the cells were collected with a fraction collector. Flow rates were typically 0.25 mL/min. The receiver solution was an isotonic pH 7.4 buffered saline solution containing 10 mM HEPES, 100 mM NaCl, PEG 400, and a surfactant, Pluronic P-103. Iontophoresis current was provided by a constant current power supplies, and the applied currents and cell voltages were recorded with a data logger. The flux profile vs. time and the cumulative dose delivered with 18 hours of iontophoresis were determined. This was followed by 3 hours where no current was applied. Concentrations of Compound A were determined using a radiolabeled marker or by HPLC. A study was performed using applied currents of 0-800 μA, and concentrations of Compound A in the patch of 50 or 100 mg/mL. Additional studies were performed using lower applied currents, lower concentrations of Compound A in the patch, and dosing solutions containing various concentrations of NaCl. […] At 100 μA the delivery rate of Compound A was approximately 10 μg/hr for the 2 cm^2 surface area, which was also within the targeted range. An alternative patch design, a monolithic patch rather than the membrane separated patch, was also tested. This patch is composed of two layers of absorbent material between which is sandwiched a silver anode.

[2] = In vivo swine iontophoretic delivery / IV infusion, plasma concentrations (LC-MS); parameters: species or system Yorkshire swine; conditions: for in vivo delivery rate: 10 mg/mL, by comparison with IV infusion of Compound B
Description: In each experiment, the patches were loaded with drug solution immediately before application to the skin of the animals. Unanesthetized Yorkshire swine with weights from about 20 to 35 kg were used. The skin sites receiving the patches were wiped clean with moist gauze pads. Patches were overwrapped with an adhesive, elastic wrap to hold the patches in place. Separate constant current power supplies were provided for each iontophoresis patch system. Current and voltage readings were made and recorded on-board dataloggers. Blood samples were withdrawn from the vena cava through an IV catheter into VACUTAINER™ blood collection tubes containing EDTA. After gentle mixing, the tubes were centrifuged to separate the plasma, which transferred to clean polypropylene tubes and frozen on dry ice. Frozen samples were stored at -80° C. until assayed.
Compound B concentrations in plasma were determined by LC-MS. The patches used were of the monolithic design described above, and having a 2 cm^2 skin coverage area. Patches were filled with solutions containing 10-20 mg/mL Compound A and 154 mM NaCl. […], plasma concentrations of Compound B increased for the first 5-8 hours of dosing and then reached steady-state.Steady-state plasma concentrations of approximately 1-2 ng/mL were attained. After an intravenous infusion of Compound B at 10 μg/hr, steady-state plasma concentrations of Compound B were also approximately 1-2 ng/mL. Therefore, the transdermal delivery rate at steady-state was approximately 10 μg/hr.
Pigs were also dosed with patches containing 10 mg/mL of Compound A, using currents of 50 and 100 μA. In these studies four patches were used for each pig, for a total skin coverage area of 8 cm^2. […] Actual in vivo delivery rates were estimated by comparison with plasma concentrations after intravenous infusion of Compound B. The 50 μA current delivered Compound A at approximately 25 μg/hr, and the 100 μA current delivered Compound A at approximately 40 μg/hr.

[3] = iontophoresis of 10 mg/mL Compound A, 50 and 100 μA, four patches (8 cm^2)

skin permeation [1]: very low skin permeation | Dose Delivered ([1]; 0 μA, 100 mg/mL Compound A (as salt), methanesulfonate salt): 0.2 mg and 0.1 mg | transdermal delivery rates versus applied current ([1]; 10 mg/mL Compound A, 154 mM NaCl, 0, 25, 50, and 100 μA): proportional to the applied current | time to maximum delivery ([1]; 50 or 100 mg/mL Compound A, iontophoresis): about 5 hours | delivery rate ([1]; 100 μA, 10 mg/mL Compound A, 154 mM NaCl, 2 cm^2): approximately 10 μg/hr | Dose Delivered ([1]; 200 μA, 100 mg/mL Compound A (as salt), methanesulfonate salt): 1.2 mg and 1.1 mg and 1.0 mg | Dose Delivered ([1]; 400 μA, 50 mg/mL Compound A (as salt)): 1.1 mg | Dose Delivered ([1]; 800 μA, 50 mg/mL Compound A (as salt), methanesulfonate salt): 2.1 mg and 2.3 mg | variability in delivery from skin to skin ([1]; FIG. 2, 10 mg/mL, 154 mM NaCl, 50 μA): extremely low | in vitro delivery versus current ([1]; FIG. 3, 10 mg/mL, 9 mg/mL NaCl, 0-100 μA): proportional to increase in current | consistency of delivery ([1]; for any specified drug concentration and applied current): generally very consistent | transdermal delivery ([1]; in the presence of the applied current): greatly increased | delivery rates ([1]; when the current was turned off): very low levels | dosing rates ([1]; within the target range, 50 or 100 mg/mL Compound A): 5 to 250 µg/h | transdermal delivery rate at steady-state ([2]; 20 mg/mL Compound A, 100 μA, 2 cm^2, by comparison with IV infusion): approximately 10 μg/hr | blood levels, iontophoresis (FIG. 5) compared with constant IV infusion of Compound B (FIG. 4) ([2]; 20 mg/mL, 154 mM NaCl, 200 μA, 2 cm^2 vs IV 10 μg/h): similar | in vivo delivery rate ([2]; 50 μA, four patches (8 cm^2)): approximately 25 μg/hr | in vivo delivery rate ([2]; 100 μA, four patches (8 cm^2)): approximately 40 μg/hr | variability in plasma levels with iontophoresis ([2]; FIG. 5, 20 mg/mL, 154 mM NaCl, 200 μA, 2 cm^2): extremely low | in vivo conversion to acid form (Compound B) ([2]; in vivo): rapidly converted to its acid form
Compound: CCCCOC(=O)N[C@@H](CNC(=O)C[C@H]1CC(c2ccc(C(=N)N)cc2)=NO1)C(=O)OC [Compound A, methyl-N^3-[2-{3-(4-formamidinophenyl)-isoxazolin-5(R)-yl}-acetyl]-N^2-(n-butyloxycarbonyl)-2,3-(S)-diaminopropionate methanesulfonate salt]

steady-state plasma concentrations ([2]; approximately, intravenous infusion of Compound B at 10 μg/hr): 1 to 2 ng/mL | period of plasma concentration increase before apparent steady-state [2, 3]: first several hours | plasma concentrations during 24 hours of iontophoretic dosing [2, 3]: fairly constant | plasma concentrations versus applied current [2, 3]: proportional to the applied current | time during which plasma concentrations increased before steady-state ([2]; iontophoresis of 20 mg/mL Compound A, 100 μA, 2 cm^2): 5 to 8 h
Compound: CCCCOC(=O)N[C@@H](CNC(=O)C[C@H]1CC(c2ccc(C(=N)N)cc2)=NO1)C(=O)O [Compound B, N^3-[2-{3-(4-formamidinophenyl)-isoxazolin-5(R)-yl}-acetyl]-N^2-(n-butyloxycarbonyl)-2,3-(S)-diaminopropanoic acid]
